Assay results reported in patent US20190262330A1, “Method of Treating Hepatocellular Carcinoma Using N-(4-(6,7-dimethoxyquinolin-4-yloxy)phenyl)-N′-(4-fluorophenyl)cyclopropane-1,1-dicarboxamide, (2S)-hydroxybutanedioate” (Exelixis, Inc., priority 2017, published 2019).

Legend:
[1] = Solubility in aqueous media; format: physicochemical
[2] = tested on: sorafenib-tolerant patients with hepatocellular carcinoma; settings: in vivo; cited from earlier work
[3] = tested on: patients with advanced renal cell carcinoma; assay: METEOR trial, safety; format: in vivo, human
Source text: Patients on both arms who had disease progression could continue treatment at the discretion of the investigator [see Clinical Studies (14)].

[4] = tested on: advanced RCC after prior anti-angiogenic therapy; assay: METEOR trial, efficacy; format: in vivo, human
Source text: Patients were stratified by the number of prior VEGFR tyrosine kinase inhibitors (TKIs) and Memorial Sloan Kettering Cancer Center (MSKCC) Risk Group. […] The majority of the patients were male (75%), with a median age of 62 years. Sixty-nine percent (69%) received only one prior anti-angiogenic therapy. […] The main efficacy outcome measure was progression-free survival (PFS) assessed by a blinded independent radiology review committee among the first 375 subjects randomized. Other efficacy endpoints were objective response rate (ORR) and overall survival (OS) in the Intent-to-Treat (ITT) population. Tumor assessments were conducted every 8 weeks for the first 12 months, then every 12 weeks thereafter. Patients received treatment until disease progression or experiencing unacceptable toxicity. Patients on both arms who had disease progression could continue treatment at the discretion of the investigator.

[5] = tested on: patients who have not received prior systemic therapy; settings: in vivo; cited from earlier work
[6] = tested on: patients with advanced renal cell carcinoma; assay: CABOSUN trial, safety; format: in vivo, human
[7] = tested on: advanced RCC without prior therapy; assay: CABOSUN trial, efficacy; format: in vivo, human; settings: ITT
Source text: All patients were required to have intermediate or poor risk disease as defined by the International Metastatic RCC Database Consortium (IMDC) risk group categories. Patients were stratified by IMDC risk group and presence of bone metastases (yes/no).
The major efficacy outcome measure was progression-free survival (PFS) by a retrospective blinded independent radiology review committee (BIRC).

Structure (SMILES): COc1cc2nccc(Oc3ccc(NC(=O)C4(C(=O)Nc5ccc(F)cc5)CC4)cc3)c2cc1OC.O=C(O)C[C@H](O)C(=O)O [Cabozantinib (S)-malate salt]
- Solubility [1]: practically insoluble

Structure (SMILES): CNC(=O)c1cc(Oc2ccc(NC(=O)Nc3ccc(Cl)c(C(F)(F)F)c3)c(F)c2)ccn1 [Regorafenib]
- Overall survival compared with placebo [2]: improved overall survival

Structure (SMILES): CO[C@H]1C[C@@H]2CC[C@@H](C)[C@@](O)(O2)C(=O)C(=O)N2CCCC[C@H]2C(=O)O[C@H]([C@H](C)C[C@@H]2CC[C@@H](OCCO)[C@H](OC)C2)CC(=O)[C@H](C)/C=C(\C)[C@@H](O)[C@@H](OC)C(=O)[C@H](C)C[C@H](C)/C=C/C=C/C=C/1C [Everolimus, everolimus]
- Adverse reactions leading to study treatment being held ([3]; METEOR): 59%
- Adverse reactions leading to study treatment discontinuation ([3]; METEOR): 10%
- Palmar-plantar erythrodysesthesia, All Grades ([3]; METEOR adverse reaction): 6%
- Palmar-plantar erythrodysesthesia, Grade 3-4 ([3]; METEOR adverse reaction): <1%
- Confirmed ORR, partial responses only ([4]; ITT): 3%
- Median PFS (95% CI) ([4]; first 375 randomized): 3.8 (3.7, 5.4) months

Structure (SMILES): CNC(=O)c1cc(Oc2ccc(NC(=O)Nc3ccc(Cl)c(C(F)(F)F)c3)cc2)ccn1 [sorafenib]
- Objective responses [5]: very few objective responses
- Overall survival [5]: improves overall survival

Structure (SMILES): CCN(CC)CCNC(=O)c1c(C)[nH]c(/C=C2\C(=O)Nc3ccc(F)cc32)c1C [Sunitinib, sunitinib]
- Deaths within 30 days of treatment ([6]; CABOSUN): 6 deaths
- ALT increased, Grade 3-4 ([6]; human, in vivo): 0%
- AST increased, Grade 3-4 ([6]; human, in vivo): 3%
- Anemia, Grade 3-4 ([6]; human, in vivo): 3%
- Angiopathy, Grade 3-4 ([6]; human, in vivo): 1%
- Arthralgia, Grade 3-4 ([6]; human, in vivo): 0%
- Back pain, Grade 3-4 ([6]; human, in vivo): 0%
- Blood creatinine increased, Grade 3-4 ([6]; human, in vivo): 3%
- Bone pain, Grade 3-4 ([6]; human, in vivo): 1%
- Confusional state, Grade 3-4 ([6]; human, in vivo): 1%
- Constipation, Grade 3-4 ([6]; human, in vivo): 0%
- Decreased appetite, Grade 3-4 ([6]; human, in vivo): 1%
- Dehydration, Grade 3-4 ([6]; human, in vivo): 1%
- Depression, Grade 3-4 ([6]; human, in vivo): 0%
- Diarrhea, Grade 3-4 ([6]; human, in vivo): 11%
- Dysphonia, Grade 3-4 ([6]; human, in vivo): 0%
- Dyspnea, Grade 3-4 ([6]; human, in vivo): 6%
- Fatigue, Grade 3-4 ([6]; human, in vivo): 17%
- Hyperkalemia, Grade 3-4 ([6]; human, in vivo): 3%
- Hypertension, Grade 3-4 ([6]; human, in vivo): 21%
- Hypocalcemia, Grade 3-4 ([6]; human, in vivo): 0%
- Hypomagnesemia, Grade 3-4 ([6]; human, in vivo): 0%
- Hyponatremia, Grade 3-4 ([6]; human, in vivo): 8%
- Hypophosphatemia, Grade 3-4 ([6]; human, in vivo): 7%
- Hypotension, Grade 3-4 ([6]; human, in vivo): 1%
- Lung infection, Grade 3-4 ([6]; human, in vivo): 0%
- Lymphocyte count decreased, Grade 3-4 ([6]; human, in vivo): 6%
- Nausea, Grade 3-4 ([6]; human, in vivo): 4%
- Pain in extremity, Grade 3-4 ([6]; human, in vivo): 0%
- Pain, Grade 3-4 ([6]; human, in vivo): 0%
- Palmar-plantar erythrodysesthesia, Grade 3-4 ([6]; human, in vivo): 4%
- Patients discontinued due to an adverse reaction ([6]; human, in vivo): 22%
- Patients with any Grade 3-4 Adverse Reaction ([6]; human, in vivo): 65%
- Patients with dose held ([6]; human, in vivo): 71%
- Patients with dose reduced ([6]; human, in vivo): 35%
- Platelet count decreased, Grade 3-4 ([6]; human, in vivo): 11%
- Proteinuria, Grade 3-4 ([6]; human, in vivo): 1%
- Renal failure acute, Grade 3-4 ([6]; human, in vivo): 1%
- Skin ulcer, Grade 3-4 ([6]; human, in vivo): 0%
- Stomatitis, Grade 3-4 ([6]; human, in vivo): 6%
- Syncope, Grade 3-4 ([6]; human, in vivo): 0%
- Vomiting, Grade 3-4 ([6]; human, in vivo): 3%
- Weight decreased, Grade 3-4 ([6]; human, in vivo): 0%
- Overall survival events [7]: (60) %
- Confirmed ORR, partial responses only ([7]; BIRC): 9%
- Median PFS ([7]; BIRC): 5.3 months
- Progression-free survival events ([7]; BIRC): (63) %
